Consider seven compounds from patent publication US5451600A, “Substituted tetrahydrobenzopyrrolylfuranoic acid derivatives as phospholipase A2 inhibitors” (Hoffmann-La Roche Inc., priority 1994, dated 1995).

Where two headings read alike, the source gives them in different places.

One experiment relates to cellular PLA2. As to the kind of experiment: Inhibition of Cellular Phospholipase A2 (A23187-stimulated macrophages). The class given is cell-based. The following applies: rat peritoneal macrophages, A-23187 stimulated. On the procedure: II. Inhibition of Cellular Phospholipase A2. - % Inhibition of Cellular PLA2
Resident macrophages were obtained from rats by peritoneal lavage with phosphate buffered saline minus Ca2^++ and Mg2^++ (PBS). Cells were washed 3 times with PBS and resuspended in Dulbecco's Modified Eagle's Medium (GiBco) containing L-glutamine low D-glucose (1000 mg/L), and sodium pyruvate (110 mg/L), supplemented with 10% fetal calf serum. Cells were counted on a Coulter ZBI cell counter and then resuspended to a concentration of 6×10^6 cells/1.5 ml. The cell suspension (1.5 ml culture dishes (35 mm) and the cells were allowed to adhere to the dishes for 90 minutes at 37° C. Dishes were washed 3 times with PBS to remove non-adherent cells. [^14 C]arachidonic acid ([^14 C]-AA, approximately […], were added to the cells (1 uCi/dish) and allowed to incorporate for 120 minutes. Medium containing unincorporated [^14 C]-AA was removed and the cell layer was again washed 3 times with PBS. Inhibitors were dissolved in dimethylsulfoxide (DMSO) and added directly to the macrophages in Hank's Balanced Salt Solution (GiBco) phosphate-buffered, pH 7.4) to obtain the desired final concentration. Cells were incubated with drug or DMSO for 30 minutes at 37° C. and were then stimulated with calcium-ionophore A-23187 (0.75 uM) for 20 minutes. The extracellular medium was removed and the [^14 C] radioactivity released into this medium from AA metabolism was measured by liquid scintillation spectroscopy. The amounts of LTB4 and PGE2 were measured in the extracellular medium by radio immunoassay with specific antisera. The effects of inhibitor were measured as percent inhibition of A23187- stimulated AA metabolite release (^14 C release, PGE2 and LTB4 production) (control) which were calculated from the formula: [formula] IC50 's were calculated as described in the HSF-PLA2 assay.

Experiment [1] has as its system adjuvant-induced arthritis in male Lewis rats. As to the kind of experiment: Established adjuvant-induced arthritis test. The experiment is classed as in vivo, rat. The following applies: day 28 minus day 21, vehicle value in parentheses. As to the method:
IV. Adjuvant-induced Arthritis
Male Lewis rats (120-140 g) received 0.1 mg myeobacterium brityricum (0.5% ow/v) heavy mineral oil containing 0.2% digitonin administered in the base of the tail and the resulting arthritis was allowed to develop for 21 days (Coffey and Salvador, 1981). The combinded volumes of both hind paws were measured using a water plethysmograph by immersion of the paws to the level of the lateral malleolus. The animals were divided into drug-treatedand vehicle (control) groups (six rats per group) with approximately equal volumes of both hind paws. On day 21, body weights were recorded and the i.p. or p.o. vehicle and drug were then administered daily for seven days. On day 28, the final day of the experiment, heparinized (0.2 units/100 μl) blood was also collected for measurement of plasma fibrinogen concentrations (Goodwin, 1961). The changes in paw volume and body weight were calculated as paw volume or body weight at day 28 minus paw volume or body weight at day 21. Values are reported as means ± S.E. for n=6. Plasma fibrinogen concentration was quantitated according to Goodwin et al. (1961) and is expressed in mg/dl. Statistical differences between measurement parameters of the drug-treated and control groups were determined using Students's t-test.

Experiment [2] concerns carrageenan-induced paw edema in rats. As to the kind of experiment: Carrageenan-induced paw edema model of inflammation. The class given is in vivo. The following applies: 2 hr, rat, read-out: Carrageenan ind. paw edema % Inhib. 2 hr; for inhibition in vivo at 100 mg/kg: 100 mg/Kg po; for inhibition in vivo at 3 mg/kg: 3 mg/Kg ip.
The target of experiment [3] is T1, PLA2 activity in human synovial fluid (HSF) (Homo sapiens, UniProt P14555).
T1 construct: Synovial fluid was obtained from patients with rheumatoid arthritis; from tissue; host or cells: cell-depleted synovial fluid of patients with rheumatoid arthritis
T1 sequence (P14555 21-144): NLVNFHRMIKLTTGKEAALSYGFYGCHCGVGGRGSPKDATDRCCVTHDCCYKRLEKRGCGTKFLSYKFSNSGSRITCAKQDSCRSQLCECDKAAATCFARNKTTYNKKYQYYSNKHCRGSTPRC
Briefly: Phospholipase A2 (PLA2) enzymatic assay - % Inhibition of HSF-PLA2. The class given is biochemical. The following applies: for inhibition at 5 µM: read-out: % Inhib. of HSF-PLA2 at 5 μM; for IC50: human synovial fluid PLA2, 30 min at 37° C., pH 7.3. From the text:
1, Phospholipase A2 (PLA2) enzymatic assay - % Inhibition of HSF-PLA2
PLA2 assay procedure described by Hope et al., Inflammation 14:543-559 (1.990) was utilized to measure the inhibitory activity of the invention (inhibitor) against PLA2 activity in human synovial fluid (HSF). Synovial fluid was obtained from patients with rheumatoid arthritis. The assay procedure measured the release of [1-^14 C]oleic acid from the sn-2 position of phospholipids in autoclaved Escherichia coli previously grown in media containing [1-^14 C]oleic acid. The standard assay reaction conditions included 1×10^9 Escherichia coil (10,000 dpm ^14 C), 0.15% (v/v) cell-depleted HSF, (which was equivalent to 66 μg protein/mL) 2 mM CaCl2, 150 mM NaCl, 50 mM sodium (N-[2-hydroxyethyl] piperazine-N'-[2-ethanesulfonate]) (HEPES) buffer (pH 7.3), 1% dimethyl sulfoxide (DMSO) and various concentrations of inhibitor in a total volume of 0.5 ml. Inhibitors were dissolved in DMSO and added. The reaction was initiated by addition of HSF, incubated for 30 min at 37° C. and then stopped by addition of 2.5 ml of chloroform/methanol (1:1.5, v/v). The total lipids were extracted by the method of Bligh, E. G., and Dyer, W. J, Can. J. Biochem. Physiol. 37:911-917 (1959) by the further addition of 0.5 mL of chloroform and 1 mL of water with mixing. The lipid extract was redissolved in chloroform/methanol (9:1, v/v) containing 10 ug of carrier oleic acid. The oleic acid was separated from phospholipids by thin layer chromatography using gel-impregnated glass fiber sheets (ITLC type SG sheets). The sheets were preactivated by heating at 110° C. for 30 min. The lipid extract was applied to the sheets and chromatographed for 6 minutes, using hexane/acetic acid (100:1, v/v). The positions on the sheet containing oleic acid and phospholipids were visualized by exposure to iodine vapor and located by comparison to standards. The oleic acid and phospholipid zones were cut from the sheets, shaken individually with 2 ml of ethanol/water (80:20, v/v) and 15 ml of Aquasol, then counted for [^14 C] radioactivity (dpm). PLA2 activity, expressed as percent hydrolysis, was calculated from the formula: [formula] and was corrected for nonenzymatic hydrolysis of the substrate. Percent inhibition due to the presence of drug was calculated from the formula: [formula]
When various concentrations of a Compound of Formula I were tested, the percent inhibition at each concentration was plotted as log concentration (abscissa) versus percent inhibition (ordinate) and the IC50 was determined from this plot.

Experiment [4] deals with PLA2-induced rat paw edema (PLA2 purified from Naja naja snake venom). Briefly: PLA2-induced rat paw edema model of inflammation. The class given is in vivo.

Consider `CCCCCCCCC1CCCc2c1n(CCCCCCCC)c1ccc(Oc3ccc(C(=O)O)o3)cc21` (racemic) [Example 154, rac-5-[(1,2,3,4-tetrahydro-1,9-dioctyl-9H-dibenzo[b,d]pyrrol-6-yl)oxy]-2-furancarboxylic acid], for which the “% Inhib. of cellular PLA2 at 5 μM” value in the experiment with cellular PLA2 is 78%. The “Change of body wt. (vehicle)” value in experiment [1] (30 mg/Kg po daily seven days) amounted to 10 g. The inhibition in vivo at 30 mg/kg in experiment [2] (30 mg/Kg ip) came out at 45%. In experiment [2], the inhibition in vivo at 100 mg/kg was 49%. In addition, the inhibition at 5 µM in experiment [3] is 81%.
Take `CCCCCCCCn1c2c(c3cc(/C=C/c4ccc(C(=O)O)o4)ccc31)CCCC2` [Example 43, (E)-5-[2-(1,2,3,4-tetrahydro-9-octyl-9H-dibenzo[b,d]pyrrol-6-yl)ethenyl]-2-furancarboxylic acid]: the IC50 was 500 nM in the experiment on cellular PLA2 and 6 µM in experiment [3]. In addition, the “Change of body wt. (vehicle)” value in experiment [1] (10 mg/Kg ip daily seven days) and in experiment [1] (100 mg/Kg po daily seven days) was 12 g in each case. Moreover, the “Change of paw volume (vehicle)” value in experiment [1] (10 mg/Kg ip daily seven days) is -0.18 mL; in experiment [1] (100 mg/Kg po daily seven days) it was -0.29 mL. Besides, in experiment [4] (50 mg/Kg ip), the “PLA2-ind. paw edema % Inhib 2 hr” value came to 60%. For the same compound, the inhibition in vivo at 50 mg/kg in experiment [2] (50 mg/Kg ip) is 40%. The inhibition in vivo at 100 mg/kg in experiment [2] was found to be 29%. Further, in experiment [3] (10 μM (footnote a), read-out: % Inhib. of HSF-PLA2 (a: % Inhibition at 10 μM)), the inhibition at 10 µM is 90%.
Turning to `CCCCCCCCn1c2c(c3cc(/C=C/c4ccc(C(=O)O)o4)ccc31)CCCC2(C)C` [Example 44, (E)-5-[2-(1,2,3,4-tetrahydro-1,1-dimethyl-9-octyl-9H-dibenzo[b,d]pyrrol-6-yl)ethenyl]-2-furancarboxylic acid], in the experiment on cellular PLA2, the “% Inhib. of cellular PLA2 at 5 μM” value came out at 62% and half-maximal inhibition (IC50) required 4000 nM. Moreover, in experiment [1] (30 mg/Kg po daily seven days), the “Change of body wt. (vehicle)” value is given as 5 g and the “Change of paw volume (vehicle)” value stood at 0.68 mL. Moreover, the “PLA2-ind. paw edema % Inhib 2 hr” value in experiment [4] (30 mg/Kg ip) was found to be 71%. The “PLA2-ind. paw edema % Inhib 2 hr” value in experiment [4] (100 mg/Kg po) worked out at 27%. Further, the inhibition in vivo at 10 mg/kg in experiment [2] (10 mg/Kg ip) turned out to be 57%. Moreover, the inhibition in vivo at 100 mg/kg in experiment [2] came to 36%. Further, in experiment [3], it took 2.5 µM to reach half-maximal inhibition (IC50) and the inhibition at 5 µM came to 71%.
In the case of `CCCCCCCCn1c2c(c3cc(/C=C\c4ccc(C(=O)O)o4)ccc31)CCCC2` [Example 51, (Z)-5-[2-(1,2,3,4-tetrahydro-9-octyl-9H-dibenzo[b,d]pyrrol-6-yl)ethenyl]-2-furancarboxylic acid], in the experiment with cellular PLA2, the “% Inhib. of cellular PLA2 at 5 μM” value was determined as 85% and the IC50 was found to be 2000 nM. In experiment [1] (10 mg/Kg po daily seven days), the “Change of body wt. (vehicle)” value is recorded as 6 g and the “Change of paw volume (vehicle)” value was determined as 0.71 mL. For the same compound, the inhibition in vivo at 1 mg/kg in experiment [2] (1 mg/Kg ip) was determined as 70%. Besides, the inhibition in vivo at 100 mg/kg in experiment [2] is 72%. Also, in experiment [3], the IC50 was 4 µM and the inhibition at 5 µM came out at 67%.
Consider `CCCCCCCCn1c2c(c3cc(/C=C\c4ccc(C(=O)O)o4)ccc31)CCCC2(C)C` [Example 52, (Z)-5-[2-(1,2,3,4-tetrahydro-1,1-dimethyl-9-octyl-9H-dibenzo[b,d]-pyrrol-6-yl)ethenyl]-2-furancarboxylic acid], for which the “% Inhib. of cellular PLA2 at 5 μM” value in the experiment with cellular PLA2 is 66%. Further, in experiment [1] (30 mg/Kg po daily seven days), the “Change of body wt. (vehicle)” value is listed as 13 g and the “Change of paw volume (vehicle)” value was found to be 0.66 mL. Further, in experiment [2] (10 mg/Kg ip), the inhibition in vivo at 10 mg/kg worked out at 50%. In experiment [3], the inhibition at 5 µM was determined as 73%.
On to `CCCCCCCCn1c2c(c3cc(Oc4ccc(C(=O)O)o4)ccc31)CCCC2` [Example 132, 5-[(1,2,3,4-tetrahydro-9-octyl-9H-dibenzo[b,d]pyrrol-6-yl)oxy]-2-furancarboxylic acid], for which, in the experiment with cellular PLA2, the “% Inhib. of cellular PLA2 at 5 μM” value turned out to be 97% and it took 1000 nM to reach half-maximal inhibition (IC50). For the same compound, in experiment [1] (10 mg/Kg po daily seven days), the “Change of body wt. (vehicle)” value is reported as 13 g and the “Change of paw volume (vehicle)” value was found to be 0.48 mL. Besides, the “PLA2-ind. paw edema % Inhib 2 hr” value in experiment [4] (100 mg/Kg po) is 34%. In experiment [2], the inhibition in vivo at 3 mg/kg turned out to be 45% and the inhibition in vivo at 100 mg/kg came to 65%. In addition, in experiment [3], it took 4 µM to reach half-maximal inhibition (IC50) and the inhibition at 5 µM turned out to be 79%.
In the case of `CCCCCCCCn1c2c(c3cc(Cc4ccc(C(=O)O)o4)ccc31)CCCC2` [Example 160, 5-[(1,2,3,4-tetrahydro-9-octyl-9H-dibenzo[b,d]pyrrol-6-yl)methyl]-2-furancarboxylic acid], the “% Inhib. of cellular PLA2 at 5 μM” value with cellular PLA2 is on record as 94%. In experiment [1] (30 mg/Kg po daily seven days), the “Change of body wt. (vehicle)” value is 4 g and the “Change of paw volume (vehicle)” value is 0.47 mL. For the same compound, the “PLA2-ind. paw edema % Inhib 2 hr” value in experiment [4] (30 mg/Kg ip) was found to be 49%. Besides, in experiment [2], the inhibition in vivo at 3 mg/kg came out at 46%. In addition, in experiment [2] (10 mg/Kg po), the inhibition in vivo at 10 mg/kg amounted to 50%. In experiment [3], the inhibition at 5 µM worked out at 49%.
